In brackets after ≈: the same amount, converted by molar mass.
How the values were obtained:
Escherichia coli P-140a = assay: In vitro antibacterial activity (MIC), Escherichia coli P-140a; assay type: cell-based; details: P140A; Escherichia coli P-140a; read-out: minimum inhibitory concentration (MIC)
Excerpt: (§1) (MIC) (μg/ml) Method; Chemotherapy, 22(6), 1126 (1974)

[1] = tested on: Salmonella enteritidis No. 1891; assay: In vitro antibacterial activity (MIC), Salmonella enteritidis No. 1891; assay type: cell-based; details: Salmonella enterica; Salmonella enteritidis No. 1891; read-out: minimum inhibitory concentration (MIC)
Excerpt: as §1

[2] = tested on: Enterobacter cloacae P-2540; assay: In vitro antibacterial activity (MIC), Enterobacter cloacae P-2540; assay type: cell-based; details: P2540; Enterobacter cloacae P-2540; read-out: minimum inhibitory concentration (MIC)
Excerpt: as §1

[3] = Urinary excretion in dogs; assay type: in vivo, Beagle dogs; details: dog, urine, po, 25 mg/kg, urine pooled over 24 hours, oral 25 mg/kg
Escherichia coli P-5101 [4] = assay: in vivo efficacy against systemic infection in mice, Escherichia coli P-5101; details: P5101, in Mus musculus, po, 168 h
Method: Male mice (ddY) weighing about 20 g
Intraperitoneal infection with (about
9 × 10^6 cells/mouse) of a bacterial
(§2) suspension in trypto-soy broth with 4% mucin.
(§3) Twice, about 5 minutes and 6 hours after infection.

Plasma level in dogs = assay type: in vivo, Beagle dogs; details: dog, plasma
Method: Two male Beagle dogs weighing 12 kg each were orally given a capsule containing one of compounds 1 and 2 at a dose of 25 mg/kg with 200 ml of milk respectively. Blood samples were taken by venipuncture from the two dogs at each 0.5, 1, 2, 3, 6, 8 and 10 hours after administration, and centrifuged individually to separate the plasma.
Drug levels were determined by the thin-layer cup-plate method using Escherichia coli Kp as an indicator organism.

in vivo = details: mouse, in vivo, po
Method: The number of dead mice was counted after 7 days, and the value of median lethal dose (LD50, mg/kg) was calculated in accordance with the Behrens-Kaerber method.

[5] = tested on: Pseudomonas aeruginosa Tsuchijima; assay: In vitro antibacterial activity (MIC), Pseudomonas aeruginosa Tsuchijima; assay type: cell-based; details: Pseudomonas aeruginosa Tsuchijima; read-out: minimum inhibitory concentration (MIC)
Excerpt: as §1

[6] = tested on: Shigella flexneri 4a P-330; assay: In vitro antibacterial activity (MIC), Shigella flexneri 4a P-330; assay type: cell-based; details: 4AP330, read-out: minimum inhibitory concentration (MIC)
Excerpt: as §1

[7] = tested on: Corynebacterium pyogenes C-21; assay: In vitro antibacterial activity (MIC), Corynebacterium pyogenes C-21; assay type: cell-based; details: Rhodococcus (subgen. Prescottella) equi, C21; Corynebacterium pyogenes C-21; read-out: minimum inhibitory concentration (MIC)
Excerpt: as §1

[8] = tested on: Pseudomonas aeruginosa No. 12; assay: in vivo efficacy on the ascending kidney infection in mice; design: species or system mice (ddY-S); details: 120 h; ascending kidney infection with Pseudomonas aeruginosa No. 12; po; mice
Method: Female mice (ddY-S) weighing 22 to 30 g were anesthetized by intravenous injection of sodium pentobarbital at a dose of 50 mg/kg. Through a small suprapubic incision, the urinary bladder was exposed and then infected by injecting 0.1 ml of a 1:10,000 dilution of Pseudomonas aeruginosa No. 12 cultured for 20 hours in trypto-soy broth, using 0.25 ml syringe with 0.25 mm needle. The mice were restrained from drinking water for a period from 1 day before to 1 day after the infection and treated twice a day for 3 days starting on the day of infection. On the 5th day after infection, the kidneys were harvested for the detection of the bacteria, transversely bisected and stamped on King A Agar, which were incubated at 37° C. overnight. No bacterial finding in the kidneys was regarded as protected from the ascending kindey infection. ED50 values were calculated by probit analysis.

[9] = tested on: Pseudomonas aeruginosa No. 12; assay: In vitro antibacterial activity (MIC), Pseudomonas aeruginosa No. 12; assay type: cell-based; details: Pseudomonas aeruginosa No. 12; read-out: minimum inhibitory concentration (MIC)
Excerpt: as §1

[10] = tested on: Pseudomonas aeruginosa No. 12; assay: in vivo efficacy against systemic infection in mice, Pseudomonas aeruginosa No. 12; details: NO.12, in Mus musculus, po, 168 h
Method: Male mice (ddY) weighing about 20 g
(3) Pseudomonas aeruginosa No. 12;
(about 5 × 10^3 cells/mouse) of a bacterial
as §2, §3
The numerals in the table show ED50 (mg/kg). ED50 values were

Proteus mirabilis P-2381 = assay: In vitro antibacterial activity (MIC), Proteus mirabilis P-2381; assay type: cell-based; details: P2381; Proteus mirabilis P-2381; read-out: minimum inhibitory concentration (MIC)
Excerpt: as §1

[11] = tested on: Salmonella typhimurium 8-9; assay: In vitro antibacterial activity (MIC), Salmonella typhimurium 8-9; assay type: cell-based; details: Salmonella enterica; Salmonella typhimurium 8-9; read-out: minimum inhibitory concentration (MIC)
Excerpt: as §1

[12] = tested on: Staphylococcus aureus No. 50774; assay: in vivo efficacy against systemic infection in mice, Staphylococcus aureus No. 50774; details: NO.50774, in Mus musculus, po, 336 h
Method: Male mice (ddY) weighing about 20 g
Intravenous infection with (about
5 × 10^8 cells/mouse) of a bacterial
as §3

[13] = tested on: Streptococcus pyogenes 65A; assay: In vitro antibacterial activity (MIC), Streptococcus pyogenes 65A; assay type: cell-based; details: Streptococcus pyogenes 65A; read-out: minimum inhibitory concentration (MIC)
Excerpt: as §1

[14] = tested on: Klebsiella pneumoniae No. 13; assay: In vitro antibacterial activity (MIC), Klebsiella pneumoniae No. 13; assay type: cell-based; details: Klebsiella pneumoniae No. 13; read-out: minimum inhibitory concentration (MIC)
Excerpt: as §1

[15] = tested on: Escherichia coli NIHJ JC-2; assay: In vitro antibacterial activity (MIC), Escherichia coli NIHJ JC-2; assay type: cell-based; details: NIHJJC2; Escherichia coli NIHJ JC-2; read-out: minimum inhibitory concentration (MIC)
Excerpt: as §1

[16] = tested on: Staphylococcus aureus No. 50774; assay: In vitro antibacterial activity (MIC), Staphylococcus aureus No. 50774; assay type: cell-based; details: Staphylococcus aureus No. 50774; read-out: minimum inhibitory concentration (MIC)
Excerpt: as §1

[17] = tested on: Streptococcus faecalis P-2473; assay: In vitro antibacterial activity (MIC), Streptococcus faecalis P-2473; assay type: cell-based; details: Enterococcus faecalis, P2473; Streptococcus faecalis P-2473; read-out: minimum inhibitory concentration (MIC)
Excerpt: as §1

Shigella flexneri 2a = assay: In vitro antibacterial activity (MIC), Shigella flexneri 2a; assay type: cell-based; details: read-out: minimum inhibitory concentration (MIC)
Excerpt: as §1

Escherichia coli P-5101 [18] = assay: In vitro antibacterial activity (MIC), Escherichia coli P-5101; assay type: cell-based; details: P5101; Escherichia coli P-5101; read-out: minimum inhibitory concentration (MIC)
Excerpt: as §1

[19] = tested on: Serratia marcescens IFC 3736; assay: In vitro antibacterial activity (MIC), Serratia marcescens IFC 3736; assay type: cell-based; details: IFC3736; Serratia marcescens IFC 3736; read-out: minimum inhibitory concentration (MIC)
Excerpt: as §1

[20] = tested on: Staphylococcus aureus 209P JC-1; assay: In vitro antibacterial activity (MIC), Staphylococcus aureus 209P JC-1; assay type: cell-based; details: Staphylococcus aureus 209P JC-1; read-out: minimum inhibitory concentration (MIC)
Excerpt: as §1

Proteus morganii Kono = assay: In vitro antibacterial activity (MIC), Proteus morganii Kono; assay type: cell-based; details: Morganella morganii; Proteus morganii Kono; read-out: minimum inhibitory concentration (MIC)
Excerpt: as §1

In the case of `CCn1cc(C(=O)O)c(=O)c2cc(F)c(N3CCNCC3)nc21` [Compound 1], the MIC (Escherichia coli P-140a) is reported as 0.2 µg/mL (≈ 0.624 µM), the MIC [1] is reported as 0.1 µg/mL (≈ 0.312 µM) and the MIC [2] is reported as 0.2 µg/mL (≈ 0.624 µM). For the same compound, the concentration at 24 h [3] was 606000 ng/mL, the dose excreted at 24 h ([3]; read-out: urinary recovery) was 40.7% and the ED50 (Escherichia coli P-5101 [4]) was 1.8 mg/kg. The concentration at 0.5 h (Plasma level in dogs; 0.5 hr after oral 25 mg/kg, nd: nondetective) was 600 ng/mL, the concentration at 1 h (Plasma level in dogs; 1 hr after oral 25 mg/kg, nd: nondetective) was 2400 ng/mL and the concentration at 2 h (Plasma level in dogs; 2 hr after oral 25 mg/kg) was 5500 ng/mL. For the same compound, the concentration at 3 h (Plasma level in dogs; 3 hr after oral 25 mg/kg) was 5900 ng/mL, the concentration at 6 h (Plasma level in dogs; 6 hr after oral 25 mg/kg) was 4200 ng/mL and the concentration at 8 h (Plasma level in dogs; 8 hr after oral 25 mg/kg) was 3700 ng/mL. The concentration at 10 h (Plasma level in dogs; 10 hr after oral 25 mg/kg) was 2400 ng/mL, the LD50 at 168 h (in vivo) was > 4000 mg/kg and the MIC [5] was 0.39 µg/mL (≈ 1.22 µM). It also gave an MIC [6] of 0.39 µg/mL (≈ 1.22 µM), an MIC [7] of 1.56 µg/mL (≈ 4.87 µM) and an ED50 [8] of 2.4 mg/kg. For the same compound, the MIC [9] was 0.78 µg/mL (≈ 2.44 µM), the ED50 [10] was 9 mg/kg and the MIC (Proteus mirabilis P-2381) was 0.39 µg/mL (≈ 1.22 µM). For the same compound, the MIC [11] was 0.1 µg/mL (≈ 0.312 µM), the ED50 [12] was 10 mg/kg and the MIC [13] was 12.5 µg/mL (≈ 39 µM). The MIC [14] was 0.2 µg/mL (≈ 0.624 µM), the MIC [15] was 0.2 µg/mL (≈ 0.624 µM) and the MIC [16] was 0.78 µg/mL (≈ 2.44 µM). The MIC [17] was 12.5 µg/mL (≈ 39 µM), the MIC (Shigella flexneri 2a) was 0.2 µg/mL (≈ 0.624 µM) and the MIC (Escherichia coli P-5101 [18]) was 0.1 µg/mL (≈ 0.312 µM). The MIC [19] was 0.39 µg/mL (≈ 1.22 µM), the MIC [20] was 0.78 µg/mL (≈ 2.44 µM) and the MIC (Proteus morganii Kono) was 0.2 µg/mL (≈ 0.624 µM).

Source: patent US4352803A, “Novel naphthyridine derivatives, intermediates thereof, processes for preparation thereof, and use thereof” (Dainippon Pharmaceutical Co., Ltd., priority 1978, dated 1982)
